# Laboratory results published in patent publication US20230203142A1, “TREATMENT OF METABOLIC DISORDERS THROUGH THE TARGETING OF A NOVEL CIRCULATING HORMONE COMPLEX” (The President and Fellows of Harvard College, priority 2020, published 2023).
# Tests used:
# INS1 cells [1] = assay: Glucose-stimulated insulin secretion (GSIS), INS1 cells; format: cell-based, rat
# Method: This finding was recapitulated in both primary human islets from multiple non-diabetic donors (FIG. 6B), as well as INS1 cells (FIG. 6C). Human islets from review board approved healthy donors were isolated using the Edmonton protocol and provided by the IsletCore and Clinical Islet Laboratory (University of Alberta, Canada). Donors with a BMI<25 and HbA1c<6.0% were used for experiments. Islets were hand-picked three times and cultured at 37° C. in RPMI media with 10% FBS and 1% Penicillin/Streptomycin overnight before use. For INS1 cells, cells were plated at 8000 cells/well in 96-well plates and incubated overnight prior to experimentation. Insulin secretion assay was performed as above using 200 μl/well for each treatment. Cells were lysed using 80 μl ultrapure water and flash freezing. For siRNA experiments, INS1 cells were allowed to reach confluency before transfection of siRNA (Horizon Discovery; L-090381-02-0005) using Lipofectamine 3000 (Thermo Fischer; L3000015) according to manufacturer protocol for 48 hours prior to assays.
# As additional controls, it was explored whether lipid binding was required for FABP4 action. […] FABP4 inhibitor studies were performed using BMS-309403 (10 nM; Sigma #BM0015).
# To further elucidate the role of purinergic receptors in this signaling process, a potent and selective P2Y1 inhibitor, MRS2179 (Baurand et al., 2001) was utilized. Cells were pre-treated for P2Y1 inhibitor (100 nM; MRS2179, Tocris #0900) during the pre-incubation period.
# To confirm activity of this inhibitor, INS1 cells were treated with increasing concentrations of ADP in the presence or absence of MRS2179. […] This supports the hypothesis that the ADP produced by the NDPK-ADK complex signals through the P2Y1 receptor, treatment of INS1 cells with MRS2179 abolished the increase in GSIS associated with addition of NDPK-ADK, with no effect in the presence of NDPK-ADK/FABP4, consistent with the receptor being inhibited by ATP under these conditions (FIG. 6L). […] Treatment of primary mouse islets with H118N NDPK and WT ADK had no effect on GSIS, confirming the requirement of NDPK kinase activity for the biology (FIG. 6N). Additionally, it was modeled that the inhibitory effect of the NDPK-ADK/FABP4 complex on GSIS is dependent on the production of ATP by ADK, as activated by the presence of FABP4. To test this, an ADK inhibitor was utilized. Cells were pre-treated with ADK inhibitor (2 nM; Santa Cruz #sc-202900) during the pre-incubation period.
# recombinant ADK = target: T1, recombinant ADK (Homo sapiens, UniProt P55263); assay: Recombinant kinase activity assay, ADK (Kinase-Glo); format: biochemical; details: recombinant ADK plus the added component
# T1 construct: purchased Novus Biologicals or R&D Systems NBP1-44382 or 8024-AK-025
# T1 sequence (P55263 whole entry): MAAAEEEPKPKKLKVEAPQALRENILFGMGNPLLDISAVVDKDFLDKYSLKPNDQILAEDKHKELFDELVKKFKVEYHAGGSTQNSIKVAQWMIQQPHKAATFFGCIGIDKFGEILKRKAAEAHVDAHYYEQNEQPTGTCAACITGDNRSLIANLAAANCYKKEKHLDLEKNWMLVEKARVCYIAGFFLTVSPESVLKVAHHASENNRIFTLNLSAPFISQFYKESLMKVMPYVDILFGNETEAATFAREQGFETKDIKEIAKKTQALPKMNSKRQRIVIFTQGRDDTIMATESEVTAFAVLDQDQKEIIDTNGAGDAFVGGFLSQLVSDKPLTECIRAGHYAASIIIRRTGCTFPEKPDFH
# Method: (§1) An on-bead kinase assay was developed to measure the activity of endogenous NDPK and ADK pulled down from serum using a-Ab or c-Ab conjugated beads. Both NDPK and ADK are bi-directional kinases that will produce ATP or ADP depending on the substrates provided (FIGS. 4B-C). Kinase activity assays were performed in 384-well plates in reaction buffer (PBS with 0.1% BSA, 0.01% F-127, 5 mM MgCl2). Experiments with recombinant proteins were performed at final concentrations of 40 μg/ml for ADK and FABP4, and 20 ug/ml for NDPK, and a reaction volume of 10 μl. Antibodies were used at a final concentration of 80 ug/ml. […] Proteins and substrates were incubated for 1 hr at room temperature, and ADP and ATP production were monitored using ADP-Glo and Kinase-Glo kits, respectively, according the manufacturer instructions (V6930 and V6711 Promega, USA). Luminescence was quantified using a SpectraMax Paradigm plate reader 30 min after the addition of substrate. Consistent with the MS results, ADK activity, as measured by generation of ATP, was specifically observed in samples pulled down with a-Ab but not c-Ab (FIG. 5A). […] To test this possibility, the ATP and ADP generating activity of recombinant ADK was assessed in the presence of the proposed complex components.
# CA33 (a-Ab) = assay: MST epitope mapping: nested NDPK-A peptides with a-Ab; format: binding
# Method: To define the binding site of a-Ab on NDPK, a nested series of peptides were generated covering human NDPK-A and interaction of each peptide with a-Ab was evaluated by Microscale Thermophoresis (MST) (FIG. 4D). MST is a technology for the interaction analysis of biomolecules. MST is the directed movement of particles in a microscopic temperature gradient. Any change of the hydration shell of biomolecules due to changes in their structure/conformation results in a relative change of the movement along the temperature gradient and is used to determine binding affinities. MST allows measurement of interactions directly in solution without the need of immobilization to a surface (immobilization-free technology).
# recombinant NDPK = target: T2, recombinant NDPK (Homo sapiens, UniProt P15531, H118N); assay: Recombinant kinase activity assay, NDPK (ADP-Glo/Kinase-Glo); format: biochemical; details: kinase activity of NDPK mutant
# T2 construct: purchased Acro Biosystems NM1-H5147
# T2 sequence (P15531 whole entry H118N): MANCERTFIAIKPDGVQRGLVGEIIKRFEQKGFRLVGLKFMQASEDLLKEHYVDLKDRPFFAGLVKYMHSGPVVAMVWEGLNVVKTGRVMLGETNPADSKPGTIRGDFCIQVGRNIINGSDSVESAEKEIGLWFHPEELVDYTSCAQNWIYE
# Method: as §1
# primary mouse islets = assay: Glucose-stimulated insulin secretion (GSIS), mouse islets; format: cell-based; details: primary / WT mouse islets
# Method: Primary islet isolation from mice was performed as previously described (Batchuluun et al., 2018; Prentice et al., 2014) and GSIS was assessed following acute treatment with NDPK-ADK in the presence or absence of FABP4. Insulin secretion assays were performed as previously described (Prentice et al., 2014). For primary islets, 20 islets were hand-picked into 1.5 ml tubes, washed twice with Krebs Ringer Buffer (KRB) without glucose, and pre-incubated in 500 μl low glucose (LG; 2.8 mM) KRB for 1 hour at 37° C. KRB was then removed and 250 μl of fresh LG KRB added. Islets were incubated for 20 minutes at 37° C. Supernatant was collected and 250 μl high glucose (HG; 16.7 mM) KRB added. Islets were incubated for 20 minutes at 37° C. In conditions where KCl was used, HG KRB was collected, and 250 μl KC1 (16.7 mM glucose, 30 mM KCl) KRB added. Islets were incubated for 20 minutes at 37° C., and supernatant collected. Following the stimulation protocol, cells were lysed in 100 μl acid ethanol (70% ethanol, 1% HCl in water) and stored at 4° C. overnight. Samples were evaporated using a SpeedVac until dried, and resuspended in 60 μl ultrapure water. DNA was quantified by Nanodrop (ThermoFisher, USA). Insulin from supernatant was quantified using insulin HTRF (Insulin Ultrasensitive Assay kit 62IN2PEH; Cisbio, USA).
# INS1 cells [2] = assay: Cytosolic calcium flux, Fura-2 AM imaging; details: 20 mM glucose
# Method: Cells were pre-treated with P2Y1 activator (0.5 nM; MRS2365 Tocris #2157) during the pre-incubation period. Cells were stimulated with ATP (5 μM; Promega #V915A) or ADP (2.5 μM; Promega #V916A) acutely with the addition of LG and HG KRB during the serial stimulation. Cells were treated with 100 ng/ml recombinant human FABP4 (produced in-house), 200 ng/ml recombinant human ADK (Novus Biologicals, product number NBP1-44382 or R&D Systems, product number 8024-AK-025), or 100 ng/ml recombinant human NDPK-A (Acro Biosystems, product number NM1-H5147) where indicated, for the pre-incubation period, as well as during the glucose stimulation.
# Briefly, INS1 cells were plated in imaging disks at 5000 cells/dish and cultured in standard media overnight. Cells were washed with PBS, and incubated in imaging buffer without glucose, with or without calcium containing Fura-2 AM (2 mM; ThermoFisher F1201) for 30 minutes at 37° C. Cells were washed twice with fresh PBS, and placed in lml imaging buffer. Calcium flux was evaluated with the addition of 20 mM glucose, 30 mM KCl, or 1 μM Thapsigargin. Extracellular calcium was added at 1.5 mM. Calcium flux measurements were performed using an epifluorescence system coupled to a Ti-S/L100 inverted microscope L100 with fluorescent light source (X-Cite 120LED System) equipped with Lambda DG-4 Plus for UV ratiometric probes. Excitations at 340 nm and 380 nm were used and an emission of 510 nm. Analysis was performed using ImageJ software. Calcium flux was measured from 50 cells per coverslip.
molecule,measurement,setting,value
Nc1ncnc2c1ncn2[C@@H]1O[C@H](COP(=O)(O)OP(=O)(O)OP(O)(O)=S)[C@@H](O)[C@H]1O [ATPgS],increase in GSIS with addition of NDPK-ADK,INS1 cells [1],more pronounced
CCc1c(-c2ccccc2)c(-c2ccccc2)nn1-c1ccccc1-c1cccc(OCC(=O)O)c1 [BMS-309403],effect on suppressing NDPK-ADK-potentiated GSIS as WT recombinant FABP4,INS1 cells [1]; FABP4 mutant or FABP4 treated with inhibitor,same effect
NDPK: recombinant human NDPK-A (Acro Biosystems),ADK activity to generate ATP,recombinant ADK,no effect
Nc1ncnc2c1ncn2[C@@H]1O[C@H](COP(=O)(O)OP(=O)(O)O)[C@@H](O)[C@H]1O [ADP],GSIS in the presence of the NDPK-ADK/FABP4 complex,INS1 cells [1],potentiated
same,insulin secretion / GSIS with exogenous nucleotide,INS1 cells [1],potentiated
VGEIIKRFEQKGFRL [Peptide 3],binding with a-Ab (in words),CA33 (a-Ab),Low affinity binding
H118N NDPK: kinase-dead H118N NDPK mutant,capacity to generate ADP,recombinant NDPK,no capacity
same,GSIS,primary mouse islets,no effect
CNc1ncnc2c1ncn2[C@H]1C[C@H](OP(=O)(O)O)[C@@H](COP(=O)(O)O)O1 [MRS2179],GSIS in the presence of the NDPK-ADK/FABP4 complex,INS1 cells [1],no effect
same,increase in GSIS with addition of NDPK-ADK,INS1 cells [1],abolished
same,ADP-stimulated increase in GSIS,INS1 cells [1]; increasing concentrations of ADP,completely inhibited
GPVVAMVWEGLNVVK [Peptide 8],binding with a-Ab (in words),CA33 (a-Ab),High affinity binding
"CSc1nc(N)c2ncn([C@H]3[C@H](O)[C@H](O)[C@]4(COP(=O)(O)OP(=O)(O)O)C[C@H]34)c2n1 [MRS2365, reference compound]",extracellular calcium influx in response to glucose,INS1 cells [2],rescued
IKPDGVQRGLVGEII [Peptide 2],binding with a-Ab (in words),CA33 (a-Ab),Low affinity binding
Nc1ncnc2c1ncn2[C@@H]1O[C@H](COP(=O)(O)OP(=O)(O)OP(=O)(O)O)[C@@H](O)[C@H]1O [ATP],increase in GSIS with addition of NDPK-ADK,INS1 cells [1],blunted
same,insulin secretion / GSIS with exogenous nucleotide,INS1 cells [1],suppressed
